Reference: patent US20100022475A1, “NOVEL TRIAZOLOPYRIMIDINE DERIVATIVES” (priority 2004, published 2010)

What was measured:
Alternaria solani = Alternaria solani / tomato / preventive; type: in vivo; settings: 200 ppm, spray, tomato plants cv. Roter Gnom, assessed 4 days after inoculation
Botrytis cinerea = Botrytis cinerea / tomato / preventive; type: in vivo; settings: 200 ppm, spray, tomato plants cv. Roter Gnom, assessed 3 days after inoculation
Puccinia recondita = Puccinia recondita / wheat / preventive (brown rust); type: in vivo; settings: 200 ppm, spray, wheat plants cv. Arina, assessed 11 days after inoculation
[1] = tested on: Magnaporthe grisea (Pyricularia oryzae); type: in vivo; settings: 200 ppm, spray, rice plants cv. Koshihikari, preventive, assessed 6 days after inoculation
[2] = tested on: Pyrenophora teres (Helminthosporium teres); experiment: Pyrenophora teres (Helminthosporium teres) / barley / preventive (net blotch); type: in vivo; settings: 200 ppm, spray, barley plants cv. Regina, assessed 4 days after inoculation
Septoria tritici = Septoria tritici / wheat / preventive (Septoria leaf spot); type: in vivo; settings: 200 ppm, spray, wheat plants cv. Riband, assessed 16-18 days after inoculation

| Compound | melting point [°C] | inhibits fungal infestation (Alternaria solani) [%] | inhibits fungal infestation (Botrytis cinerea) [%] | inhibits fungal infestation (Puccinia recondita) [%] | inhibits fungal infestation [1] [%] | inhibits fungal infestation [2] [%] | inhibits fungal infestation (Septoria tritici) [%] |
| --- | --- | --- | --- | --- | --- | --- | --- |
| C[Si]1(CNc2c(-c3c(F)cc(F)cc3F)c(Cl)nc3ncnn23)CCCCC1 [I.o.081, [5-chloro-6-(2,4,6-trifluoro-phenyl)-[1,2,4]triazolo[1,5-a]pyrimidin-7-yl]-(1-methyl-silinan-1-ylmethyl)-amine] | 150 to 152 | – | – | – | – | – | – |
| C[Si]1(CNc2c(-c3c(F)cc(F)cc3F)c(Cl)nc3ncnn23)CCCC1 [I.d.081, [5-chloro-6-(2,4,6-trifluoro-phenyl)-[1,2,4]triazolo[1,5-a]pyrimidin-7-yl]-(1-methyl-silolan-1-ylmethyl)-amine] | 138 to 139 | ≥ 80 | ≥ 80 | ≥ 80 | ≥ 80 | ≥ 80 | ≥ 80 |
